Counter-ions that a name gives are not always drawn.
Tests used:
[1] = physical stability: conversion to a hydrated form during aqueous based processing (wet granulation); format: physicochemical; details: during essential manufacturing processes / aqueous based processing steps, e.g. wet granulation; tris salt compared to free acid
solubility = format: physicochemical; details: tris salt compared to free acid
absorption (Cmax, Tmax) = format: in vivo; details: tris salt compared to free acid

## CCCCCn1c(=O)[nH]c(=O)c2[nH]c(Cl)nc21 [free acid, 8-chloro-3-pentyl-3,7-dihydro-1H-purine-2,6-dione]
[1]
  physical stability (remains in original form, no conversion by hydration): readily convert to a hydrated form

## CCCCCn1c(=O)[nH]c(=O)c2[nH]c(Cl)nc21 [tris salt, 8-chloro-3-pentyl-3,7-dihydro-1H-purine-2,6-dione trishydroxymethylaminomethane]
[1]
  physical stability (remains in original form, no conversion by hydration): enhanced physical stability
solubility
  solubility: higher solubility than the free acid
Absorption (Cmax, Tmax)
  Cmax: increased
Absorption (Cmax, Tmax); indicates faster absorption
  Tmax: decreased

Source: patent US9163024B2, “Tris salts of 8-chloro-3-pentyl-3,7-dihydro-1H-purine-2,6-dione” (GlaxoSmithKline LLC, priority 2008, dated 2015)
